Experimental data published in ChEMBL document CHEMBL5316339, “Discovery of a Series of Substituted 1H-((1,2,3-Triazol-4-yl)methoxy)pyrimidines as Brain Penetrants and Potent GluN2B-Selective Negative Allosteric Modulators” (J Med Chem, 2023).
≈ marks a conversion by molar mass, not a printed value.

Key:
[1] = Drug metabolism in rat liver microsomes assessed as hydroxylated metabolite (2-((1-(3-(difluoromethoxy)-4-fluorophenyl)-1H-1,2,3-triazol-4-yl)methoxy)pyrimidin-5-yl)methanol formation; type: ADME, Microsome
[2] = Metabolic stability in human liver microsomes assessed as extraction ratio; type: ADME, Microsome; settings: read-out: ERH
[3] = Metabolic stability in rat liver microsomes assessed as extraction ratio; type: ADME, Microsome; settings: read-out: ERH
[4] = Drug metabolism in human liver microsomes assessed as O-dearylation mediated metabolite formation; type: ADME, Microsome
MDR1 (P-gp) = assay: Efflux ratio of apparent permeability from basolateral to apical side over apical to basolateral side in MDCK-MDR1 cells at 5 uM incubated for 60 mins by LC-MS/MS analysis; type: ADME, cell-based, Canis lupus familiaris; settings: dog
Hippocampus = assay: Ex vivo receptor occupancy at GluN2B receptor in Sprague-Dawley rat hippocampus administered orally and measured after 2 hrs by 3-[3H] 1-(azetidin- 1-yl-2[6-(4-fluoro-3-methyl-pheny)pyrrolo[3,2-b]pyridin-1-yl]ethanon based autoradiography; type: functional; settings: route po
[5] = biological target: Voltage-gated inwardly rectifying potassium channel KCNH2 (Homo sapiens, UniProt Q12809); assay: Displacement of [3H]dofetilide from human ERG expressed in HEK293 cells; type: toxicity, cell-based
[6] = Solubility in aqueous buffer at pH 2; type: physicochemical
[7] = biological target: Glutamate receptor ionotropic, NMDA 2B (Rattus norvegicus, UniProt Q00960); assay: Displacement of 3-(3H) 1-(azetidin-1-yl)-2-(6- (4-fluoro-3-methyl-phenyl)pyrrolo-[…] pyridin-1yl)ethanone from GluN2B receptor in rat cortical membrane assessed as inhibition constant incubated for 2 hrs under shaking condition by liquid scintillator counter analysis; type: cell membranes, Cortex
[8] = Solubility in aqueous buffer at pH 7; type: physicochemical
[9] = Drug metabolism in rat liver microsomes assessed as acid metabolite 2-((1-(3-(difluoromethoxy)-4-fluorophenyl)-1H-1,2,3-triazol-4-yl)methoxy)pyrimidine-5-carboxylic acid formation; type: ADME, Microsome
[10] = Drug metabolism in rat liver microsomes assessed as O-dearylation mediated metabolite formation; type: ADME, Microsome
[11] = biological target: Glutamate NMDA receptor; GRIN1/GRIN2B (Homo sapiens, UniProt Q05586+Q13224); assay: Negative allosteric modulation of human GluN1A/GluN2B receptor expressed in T-REX-CHO cells preincubated for 5 mins followed by glutamate and glycine addition and measured after 5 mins by FLIPR assay; type: cell-based
[12] = Drug metabolism in human liver microsomes assessed as hydroxylated metabolite (2-((1-(3-(difluoromethoxy)-4-fluorophenyl)-1H-1,2,3-triazol-4-yl)methoxy)pyrimidin-5-yl)methanol formation; type: ADME, Microsome
[13] = Drug metabolism in human liver microsomes assessed as acid metabolite 2-((1-(3-(difluoromethoxy)-4-fluorophenyl)-1H-1,2,3-triazol-4-yl)methoxy)pyrimidine-5-carboxylic acid formation; type: ADME, Microsome

Chain of Glutamate NMDA receptor; GRIN1/GRIN2B (Q13224 whole entry, other chains not shown): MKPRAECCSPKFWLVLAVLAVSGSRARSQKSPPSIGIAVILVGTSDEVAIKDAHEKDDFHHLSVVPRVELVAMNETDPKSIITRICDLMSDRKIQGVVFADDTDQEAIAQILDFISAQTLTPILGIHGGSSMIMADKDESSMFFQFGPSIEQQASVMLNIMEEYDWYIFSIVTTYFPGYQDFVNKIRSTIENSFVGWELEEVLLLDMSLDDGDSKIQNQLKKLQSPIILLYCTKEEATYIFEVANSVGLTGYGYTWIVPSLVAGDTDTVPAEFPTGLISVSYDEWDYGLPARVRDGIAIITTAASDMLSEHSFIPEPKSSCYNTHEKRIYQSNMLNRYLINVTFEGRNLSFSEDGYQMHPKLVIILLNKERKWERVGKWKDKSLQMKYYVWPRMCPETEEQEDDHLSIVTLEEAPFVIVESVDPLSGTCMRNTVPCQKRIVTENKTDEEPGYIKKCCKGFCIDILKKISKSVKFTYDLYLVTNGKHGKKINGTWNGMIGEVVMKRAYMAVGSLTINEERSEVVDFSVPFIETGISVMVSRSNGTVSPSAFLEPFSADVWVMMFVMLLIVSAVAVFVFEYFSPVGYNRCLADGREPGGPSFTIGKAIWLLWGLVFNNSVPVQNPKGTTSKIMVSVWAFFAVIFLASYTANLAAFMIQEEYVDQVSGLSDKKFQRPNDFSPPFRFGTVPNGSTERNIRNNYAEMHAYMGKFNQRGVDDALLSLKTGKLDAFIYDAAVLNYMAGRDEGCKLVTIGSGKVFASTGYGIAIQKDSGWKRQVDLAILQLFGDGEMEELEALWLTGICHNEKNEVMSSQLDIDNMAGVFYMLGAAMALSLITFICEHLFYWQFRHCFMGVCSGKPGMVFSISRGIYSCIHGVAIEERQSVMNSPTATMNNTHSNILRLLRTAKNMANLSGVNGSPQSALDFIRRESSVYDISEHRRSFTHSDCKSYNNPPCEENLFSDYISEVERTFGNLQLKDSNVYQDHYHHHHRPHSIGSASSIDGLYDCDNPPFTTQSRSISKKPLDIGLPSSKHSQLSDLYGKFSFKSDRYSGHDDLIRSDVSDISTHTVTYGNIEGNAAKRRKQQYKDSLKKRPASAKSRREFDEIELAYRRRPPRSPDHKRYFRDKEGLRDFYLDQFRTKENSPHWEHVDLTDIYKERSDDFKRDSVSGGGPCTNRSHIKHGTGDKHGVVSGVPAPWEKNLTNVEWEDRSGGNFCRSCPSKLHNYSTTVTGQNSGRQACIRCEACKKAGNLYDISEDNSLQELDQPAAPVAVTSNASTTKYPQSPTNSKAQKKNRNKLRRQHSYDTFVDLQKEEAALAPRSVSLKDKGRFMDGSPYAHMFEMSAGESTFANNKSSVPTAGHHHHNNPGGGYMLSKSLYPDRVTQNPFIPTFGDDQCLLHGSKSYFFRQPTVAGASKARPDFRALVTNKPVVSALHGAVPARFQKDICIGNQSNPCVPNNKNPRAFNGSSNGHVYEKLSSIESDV
Chain of Voltage-gated inwardly rectifying potassium channel KCNH2 (Q12809 whole entry): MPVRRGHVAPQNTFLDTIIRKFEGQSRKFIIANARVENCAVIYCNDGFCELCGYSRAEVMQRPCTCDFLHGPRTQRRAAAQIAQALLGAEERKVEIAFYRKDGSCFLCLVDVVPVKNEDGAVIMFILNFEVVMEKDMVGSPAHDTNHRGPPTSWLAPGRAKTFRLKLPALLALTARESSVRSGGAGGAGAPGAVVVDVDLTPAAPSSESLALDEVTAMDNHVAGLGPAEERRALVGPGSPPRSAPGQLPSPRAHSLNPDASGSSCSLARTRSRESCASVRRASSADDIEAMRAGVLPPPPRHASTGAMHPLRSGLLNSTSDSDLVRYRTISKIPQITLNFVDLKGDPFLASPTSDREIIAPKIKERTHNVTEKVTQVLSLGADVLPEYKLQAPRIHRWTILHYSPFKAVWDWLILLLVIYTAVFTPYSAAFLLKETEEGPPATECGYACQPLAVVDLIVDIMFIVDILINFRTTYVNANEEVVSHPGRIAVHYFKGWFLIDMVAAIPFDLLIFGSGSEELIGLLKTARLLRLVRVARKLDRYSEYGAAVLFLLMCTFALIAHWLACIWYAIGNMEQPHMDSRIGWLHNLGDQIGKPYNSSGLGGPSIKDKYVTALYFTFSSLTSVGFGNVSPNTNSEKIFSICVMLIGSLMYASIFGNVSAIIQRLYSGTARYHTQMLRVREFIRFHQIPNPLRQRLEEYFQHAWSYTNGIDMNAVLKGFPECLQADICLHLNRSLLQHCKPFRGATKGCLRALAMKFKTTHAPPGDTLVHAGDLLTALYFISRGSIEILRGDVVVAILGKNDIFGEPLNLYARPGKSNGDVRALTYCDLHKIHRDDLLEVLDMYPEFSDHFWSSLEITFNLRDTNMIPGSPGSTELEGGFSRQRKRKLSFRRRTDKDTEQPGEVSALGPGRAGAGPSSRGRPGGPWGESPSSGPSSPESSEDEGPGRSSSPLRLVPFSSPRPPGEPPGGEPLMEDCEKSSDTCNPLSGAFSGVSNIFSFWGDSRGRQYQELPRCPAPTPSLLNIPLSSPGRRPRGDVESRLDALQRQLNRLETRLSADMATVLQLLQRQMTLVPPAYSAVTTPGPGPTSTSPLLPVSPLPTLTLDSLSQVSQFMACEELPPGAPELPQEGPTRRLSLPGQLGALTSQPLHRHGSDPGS
Chain of Glutamate receptor ionotropic, NMDA 2B (Q00960 whole entry): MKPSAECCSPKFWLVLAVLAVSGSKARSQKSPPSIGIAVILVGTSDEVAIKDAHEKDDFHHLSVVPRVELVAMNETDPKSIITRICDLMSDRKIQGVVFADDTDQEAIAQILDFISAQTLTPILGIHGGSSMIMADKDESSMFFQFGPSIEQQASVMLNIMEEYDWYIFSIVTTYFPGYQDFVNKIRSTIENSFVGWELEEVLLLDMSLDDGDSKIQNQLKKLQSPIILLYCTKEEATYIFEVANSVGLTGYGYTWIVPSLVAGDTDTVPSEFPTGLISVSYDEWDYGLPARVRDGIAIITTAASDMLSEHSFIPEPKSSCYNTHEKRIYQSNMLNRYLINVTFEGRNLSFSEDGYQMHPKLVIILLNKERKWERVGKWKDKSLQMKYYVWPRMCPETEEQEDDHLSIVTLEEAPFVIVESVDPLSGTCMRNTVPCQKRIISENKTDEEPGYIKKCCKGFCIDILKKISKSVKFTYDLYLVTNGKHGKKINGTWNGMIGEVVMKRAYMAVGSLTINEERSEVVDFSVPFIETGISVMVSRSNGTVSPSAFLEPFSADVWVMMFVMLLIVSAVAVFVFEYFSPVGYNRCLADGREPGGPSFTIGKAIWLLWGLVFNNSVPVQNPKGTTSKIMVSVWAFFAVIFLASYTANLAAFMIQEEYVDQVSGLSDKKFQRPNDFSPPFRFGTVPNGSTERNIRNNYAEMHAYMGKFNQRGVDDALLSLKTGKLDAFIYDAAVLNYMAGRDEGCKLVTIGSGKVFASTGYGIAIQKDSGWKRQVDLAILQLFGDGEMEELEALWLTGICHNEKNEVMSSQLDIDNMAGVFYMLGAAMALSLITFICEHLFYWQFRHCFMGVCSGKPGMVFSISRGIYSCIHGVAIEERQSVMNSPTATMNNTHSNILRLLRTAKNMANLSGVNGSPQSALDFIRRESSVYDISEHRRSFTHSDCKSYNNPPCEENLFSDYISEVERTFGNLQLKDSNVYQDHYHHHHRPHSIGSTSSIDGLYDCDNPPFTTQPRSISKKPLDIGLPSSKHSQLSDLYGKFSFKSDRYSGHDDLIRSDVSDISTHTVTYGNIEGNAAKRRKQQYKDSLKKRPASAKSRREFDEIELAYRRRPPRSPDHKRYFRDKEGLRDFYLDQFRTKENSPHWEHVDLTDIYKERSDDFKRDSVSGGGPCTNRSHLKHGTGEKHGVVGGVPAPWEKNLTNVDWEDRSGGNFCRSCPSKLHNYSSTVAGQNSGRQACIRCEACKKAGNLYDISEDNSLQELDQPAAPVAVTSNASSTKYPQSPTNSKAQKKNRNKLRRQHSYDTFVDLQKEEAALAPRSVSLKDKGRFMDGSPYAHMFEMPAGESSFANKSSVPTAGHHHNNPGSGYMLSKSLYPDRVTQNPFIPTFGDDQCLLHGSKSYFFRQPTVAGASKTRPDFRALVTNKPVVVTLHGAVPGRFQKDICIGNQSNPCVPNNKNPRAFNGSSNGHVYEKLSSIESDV

Cc1cnc(OCc2cn(-c3ccc(F)c(OC(F)F)c3)nn2)nc1
Drug metabolism [1]: Metabolite_Detected | hepatic extraction ratio [2]: 0.57 | hepatic extraction ratio [3]: 0.37 | Drug metabolism [4]: Metabolite_Notdetected | efflux ratio at 1 h, 5 µM (MDR1 (P-gp)): 0.8 | ED50 (Hippocampus): 1.7 mg/kg | IC50 [5]: > 10000 nM | solubility [6]: 7.6 µM (≈ 2.67 µg/mL) | Ki [7]: 8.9 nM | solubility [8]: 7.6 µM (≈ 2.67 µg/mL) | Drug metabolism [9]: Metabolite_Detected | Drug metabolism [10]: Metabolite_Notdetected | IC50 [11]: 3.5 nM | Drug metabolism [12]: Metabolite_Detected | Drug metabolism [13]: Metabolite_Detected
